pIC50: −log10 of the molar value. Values joined by “and” are separate entries in the source; they are usually repeats but may differ in a detail not shown here. Identical values can stand only once. Like-named read-outs stand apart in the source and are kept apart here.
How the values were obtained:
[1] = target: T1, acetylcholinesterase (AChE) isolated from Electrophorus electricus (Electrophorus electricus, UniProt O42275); test: biochemical
T1 construct: AChE isolated from Electrophorus electricus; from tissue
T1 sequence (O42275 24-633): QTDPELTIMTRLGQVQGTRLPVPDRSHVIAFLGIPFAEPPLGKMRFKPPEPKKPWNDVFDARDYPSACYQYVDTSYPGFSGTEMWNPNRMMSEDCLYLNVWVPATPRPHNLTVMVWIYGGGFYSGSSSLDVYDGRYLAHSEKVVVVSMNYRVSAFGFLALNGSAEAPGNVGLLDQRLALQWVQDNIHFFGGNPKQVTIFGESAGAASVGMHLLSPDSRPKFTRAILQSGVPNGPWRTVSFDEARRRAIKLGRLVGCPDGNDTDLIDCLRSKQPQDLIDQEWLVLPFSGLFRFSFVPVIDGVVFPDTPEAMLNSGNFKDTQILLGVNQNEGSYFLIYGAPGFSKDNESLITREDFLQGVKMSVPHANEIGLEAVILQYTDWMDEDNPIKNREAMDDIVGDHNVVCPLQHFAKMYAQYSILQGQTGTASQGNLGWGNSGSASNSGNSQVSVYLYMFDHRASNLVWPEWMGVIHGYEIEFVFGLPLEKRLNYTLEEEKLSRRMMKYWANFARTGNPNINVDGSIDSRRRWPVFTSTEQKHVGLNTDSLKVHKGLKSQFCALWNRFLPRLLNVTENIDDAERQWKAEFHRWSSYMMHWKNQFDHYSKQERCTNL

[2] = target: T2, human serum butyrylcholinesterase (BChE) (Homo sapiens, UniProt P06276); test: biochemical
T2 construct: BChE isolated from human serum; from tissue; host or cells: human serum
T2 sequence (P06276 29-602): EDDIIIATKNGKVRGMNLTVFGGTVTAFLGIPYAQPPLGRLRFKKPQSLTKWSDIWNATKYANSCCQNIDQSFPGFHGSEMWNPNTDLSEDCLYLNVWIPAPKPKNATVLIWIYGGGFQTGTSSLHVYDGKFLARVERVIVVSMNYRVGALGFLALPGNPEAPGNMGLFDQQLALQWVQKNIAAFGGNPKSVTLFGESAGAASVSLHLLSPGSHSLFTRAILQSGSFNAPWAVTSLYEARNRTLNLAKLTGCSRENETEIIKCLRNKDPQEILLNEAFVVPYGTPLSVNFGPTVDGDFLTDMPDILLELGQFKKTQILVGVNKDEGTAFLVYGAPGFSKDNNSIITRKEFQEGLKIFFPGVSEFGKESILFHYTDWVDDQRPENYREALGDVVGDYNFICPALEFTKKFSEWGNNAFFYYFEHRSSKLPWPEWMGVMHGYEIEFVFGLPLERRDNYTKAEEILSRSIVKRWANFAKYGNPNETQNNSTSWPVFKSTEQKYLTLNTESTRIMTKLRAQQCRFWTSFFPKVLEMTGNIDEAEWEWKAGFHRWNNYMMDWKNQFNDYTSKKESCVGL

[3] = AChE isolated from Electrophorus electricus, read-out: AChE IC50
[4] = human serum BChE, read-out: BChE

Row | SMILES | pIC50 [1, 3] | pIC50 [2, 4] | pIC50 ([1]; AChE IC50) | pIC50 [2]
1 | CC(C)C(=O)N[C@H]1CCC23C[C@]24C(=O)C[C@]2(C)[C@@H]([C@H](C)N(C)C)[C@H](OC(=O)C(C)(C)C)C[C@@]2(C)[C@@H]4CC[C@H]3[C@]1(C)/C=N/Cc1ccccc1 (stereo partly drawn) [Compound 19, (20S)-16α-pivalyl-3-isobutyrylamino-9,19-cyclo-4α-benzyliminomethyl-4,14α-dimethyl-20-dimethylamino-5α,9-pregnan-11-one] | < 6.00 | 5.89 | – | –
2 | C[C@@H]([C@H]1[C@H](O)C[C@@]2(C)[C@@H]3CC[C@H]4[C@](C)(CO)[C@@H](N)CC[C@@]45CC35C(=O)C[C@]12C)N(C)C (stereo partly drawn) [Compound 5, (20S)-3-amino-9,19-cyclo-4α-hydroxymethyl-4,14α-dimethyl-20-dimethylamino-5α,9-pregnan-16α-ol-11-one] | < 5.30 | < 4.52 | – | –
3 | CCC(C)C(=O)N[C@H]1CC=C2C[C@H]3C(=O)C[C@]4(C)[C@@H]([C@H](C)N(C)C)[C@H](O)C[C@@]4(C)[C@@H]3CC[C@H]2[C@]1(C)CO (mixture of isomers) [Compound 7h, (20S)-10(9->1)abeo-4α-hydroxymethyl-4,14α-dimethyl-20-dimethylamino-3 (2-methylbutyrylamino)-5α,9-pregn-1(10)-en-16α-ol-11-one] | – | 5.72 | 6.92 | –
4 | CC(C)[C@H]1N[C@H]2CCC34C[C@]35C(=O)C[C@]3(C)[C@@H]([C@H](C)N(C)C)[C@H](O)C[C@@]3(C)[C@@H]5CC[C@H]4[C@]2(C)CO1 (stereo partly drawn) [Compound 9, (20S)-9,19-cyclo-4,14α-dimethyl-20-dimethylamino(2′β-isopropyl-1′,2′,4′,4′-tetrahydro[3′,1′]oxazin)-5α,9-pregnan-16α-ol-11-one] | 5.62 | – | – | < 5.00
5 | C[C@@H]([C@H]1[C@H](O)C[C@@]2(C)[C@@H]3CC[C@@H]4C(=CC[C@H](NC(=O)Cc5ccccc5)[C@@]4(C)CO)C[C@H]3C(=O)C[C@]12C)N(C)C [Compound 7g, (20S)-10(9->1)abeo-4α-hydroxymethyl-4,14α-dimethyl-20-dimethylamino-3 (phenylacetylamino)-5α,9-pregn-1(10)-en-16α-ol-11-one] | < 6.00 | < 5.00 | – | –
6 | CC(C)C1=NC2CC=C3C[C@H]4C(=O)C[C@]5(C)[C@@H]([C@H](C)N(C)C)[C@H](O)C[C@@]5(C)[C@@H]4CC[C@H]3[C@]2(C)CO1 (stereo partly drawn) [Compound 1, (20S)-10(9->1)abeo-4,14α-dimethyl-20-dimethylamino-(2′-isopropyl-4′,4′-dihydro[3′,1′]oxazine)-5α,9-pregn-1(10)-en-16α-ol-11-one] | 7.51 and 7.49 | < 6.00 | – | –
7 | C[C@@H]([C@H]1[C@H](O)C[C@@]2(C)[C@@H]3CC[C@@H]4C(=CC[C@H](NC(=O)c5ccccc5)[C@@]4(C)CO)C[C@H]3C(=O)C[C@]12C)N(C)C [Compound 7b, (20S)-10(9->1)abeo-3-benzoylamino-4α-hydroxymethyl-4,14α-dimethyl-20-dimethylamino-5α,9-pregn-1(10)-en-16α-ol-11-one] | < 5.00 | 5.73 | – | –
8 | CC(=O)O[C@@H]1C[C@@]2(C)[C@@H]3CC[C@@H]4C5(CC[C@H](NC(=O)C(C)C)[C@@]4(C)C=O)C[C@@]35C(=O)C[C@]2(C)[C@H]1[C@H](C)N(C)C (stereo partly drawn) [Compound 14, (20S)-16α-acetyl-3-isobutyrylamino-9,19-cyclo-4α-formyl-4,14α-dimethyl-20-dimethylamino-5α,9-pregnan-11-one] | < 6.00 | < 6.00 | – | –
9 | CC(=O)O[C@@H]1C[C@@]2(C)[C@@H]3CC[C@@H]4C5(CC[C@H](NC(=O)C(C)C)[C@@]4(C)COS(=O)(=O)c4ccc(C)cc4)C[C@@]35C(=O)C[C@]2(C)[C@H]1[C@H](C)N(C)C (stereo partly drawn) [Compound 23, (20S)-16α-acetyl-3-isobutyrylamino-9,19-cyclo-4α-hydroxytosylmethyl-4,14α-dimethyl-20-dimethylamino-5α,9-pregnan-11-one] | 5.36 | < 4.00 | – | –
10 | C[C@@H]([C@H]1[C@H](O)C[C@@]2(C)[C@@H]3CC[C@@H]4C5(CC[C@H](NC(=O)C6CCCCC6)[C@@]4(C)CO)C[C@@]35C(=O)C[C@]12C)N(C)C (stereo partly drawn) [Compound 6d, (20S)-3-(cyclohexanecarboxylamino)-9,19-cyclo-4α-hydroxymethyl-4,14α-dimethyl-20-dimethylamino-5α,9-pregnan-16α-ol-11-one] | < 5.00 | < 5.30 | – | –
11 | C[C@@H]([C@H]1[C@H](O)C[C@@]2(C)[C@@H]3CC[C@@H]4C(=CC[C@H](N)[C@@]4(C)CO)C[C@H]3C(=O)C[C@]12C)N(C)C [Compound 11, (20S)-10(9->1)abeo-3-amino-4α-hydroxymethyl-4,14α-dimethyl-20-dimethylamino-5α,9-pregn-1(10)-en-16α-ol-11-one] | 5.82 | < 5.00 | – | –
12 | C[C@@H]([C@H]1[C@H](O)C[C@@]2(C)[C@@H]3CC[C@H]4[C@](C)(CO)[C@@H](NC(=O)c5ccccc5)CC[C@@]45CC35C(=O)C[C@]12C)N(C)C (stereo partly drawn) [Compound 6b, (20S)-3-benzoylamino-9,19-cyclo-4α-hydroxymethyl-4,14α-dimethyl-20-dimethylamino-5α,9-pregnan-16α-ol-11-one] | < 5.00 | 5.65 | – | –
13 | CC(C)C(=O)N[C@H]1CCC23C[C@]24C(=O)C[C@]2(C)[C@@H]([C@H](C)[N+](C)(C)[O-])[C@H](O)C[C@@]2(C)[C@@H]4CC[C@H]3[C@]1(C)CO (stereo partly drawn) [Compound 29, (20S)-3-isobutyrylamino-9,19-cyclo-4α-hydroxymethyl-4,14α-dimethyl-20-dimethylazinoyl-5α,9-pregnan-16α,11-ol-11-one] | 5.85 | < 6.00 | – | –
14 | C[C@@H]([C@H]1[C@H](O)C[C@@]2(C)[C@@H]3CC[C@@H]4C(=CC[C@@H]5N=C(C6CCCCC6)OC[C@]54C)C[C@H]3C(=O)C[C@]12C)N(C)C [Compound 8d, (20S)-10(9->1)abeo-4,14α-dimethyl-20-dimethylamino(2′-cyclohexyl-4′,4′-dihydro[3′,1′]oxazin)-5α,9-pregn-1(10)-en-16α-ol-11-one] | 6.39 | 6.43 | – | –
15 | C[C@@H]([C@H]1[C@H](O)C[C@@]2(C)[C@@H]3CC[C@@H]4C(=CC[C@H](NC(=O)C5CCCCC5)[C@@]4(C)CO)C[C@H]3C(=O)C[C@]12C)N(C)C [Compound 7d, (20S)-10(9->1)abeo-3-(cyclohexanecarboxyamino)-4α-hydroxymethyl-4,14α-dimethyl-20-dimethylamino-5α,9-pregn-1(10)-en-16α-ol-11-one] | < 6.00 | 5.40 | – | –
16 | C[C@@H]([C@H]1[C@H](O)C[C@@]2(C)[C@@H]3CC[C@@H]4C5(CC[C@H](N)[C@@]4(C)CO)C[C@@]35[C@@H](O)C[C@]12C)N(C)C (stereo partly drawn) [Compound 28, (20S)-3-amino-9,19-cyclo-4α-hydroxymethyl-4,14α-dimethyl-20-dimethylamino-5α,9-pregnan-16α,11-diol-11-one] | < 6.00 | 5.61 | – | –
17 | CCC(=O)N[C@H]1CC=C2C[C@H]3C(=O)C[C@]4(C)[C@@H]([C@H](C)N(C)C)[C@H](O)C[C@@]4(C)[C@@H]3CC[C@H]2[C@]1(C)CO [Compound 7c, (20S)-10(9->1)abeo-4α-hydroxymethyl-4,14α-dimethyl-20-dimethylamino-3-propionylamino-5α,9-pregn-1(10)-en-16α-ol-11-one] | < 6.00 | < 5.00 | – | –
18 | CCC(C)C(=O)N[C@H]1CCC23C[C@]24C(=O)C[C@]2(C)[C@@H]([C@H](C)N(C)C)[C@H](O)C[C@@]2(C)[C@@H]4CC[C@H]3[C@]1(C)CO (stereo partly drawn) [Compound 6h, (20S)-9,19-cyclo-4α-hydroxymethyl-4,14α-dimethyl-20-dimethylamino-3 (2-methylbutyrylamino)-5α,9-pregnan-16α-ol-11-one] | < 4.00 | 6.92 | – | –
19 | CCC(C)C1=N[C@H]2CC=C3C[C@H]4C(=O)C[C@]5(C)[C@@H]([C@H](C)N(C)C)[C@H](O)C[C@@]5(C)[C@@H]4CC[C@H]3[C@]2(C)CO1 (mixture of isomers) [Compound 8h, (20S)-10(9->1)abeo-4,14α-dimethyl-20-dimethylamino(2′-(1-methylpropyl)-4′,4′ dihydro[3′,1′]oxazin)-5α,9-pregn-1(10)-en-16α-ol-11-one] | 7.57 | 5.81 | – | –
20 | CC(C)C(=O)N[C@H]1CCC23C[C@]24C(=O)C[C@]2(C)[C@@H]([C@H](C)N(C)C)[C@H](O)C[C@@]2(C)[C@@H]4CC[C@H]3[C@]1(C)COCc1ccccc1 (stereo partly drawn) [Compound 27] | 4.78 | 5.28 | – | –
21 | C[C@@H]([C@H]1[C@H](O)C[C@@]2(C)[C@@H]3CC[C@@H]4C(=CC[C@H](NC(=O)C(C)(C)C)[C@@]4(C)CO)C[C@H]3C(=O)C[C@]12C)N(C)C [Compound 7f, (20S)-10(9->1)abeo-4α-hydroxymethyl-4,14α-dimethyl-20-dimethylamino-3 (2,2-dimethylpropionylamino)-5α,9-pregn-1(10)-en-16α-ol-11-one] | 5.32 | < 6.00 | – | –
